Reference: patent publication US8003659B2, “Macrocyclic serine protease inhibitors” (Indenix Pharmaceuticals, Inc., priority 2008, dated 2011)

Legend:
mutant protease D168A = assay: Resistance profile, mutant protease D168A; format: biochemical, HCV; settings: ratio of inhibitory activity against mutant enzyme over non-mutant enzyme
Procedure: (§1) General procedure: Measurement of the inhibitory effect of compounds on HCV protease activity was performed with the SensoLyte™ 620 HCV Protease Assay kit from AnaSpec, Inc. (San Jose, Calif.) under conditions described by the supplier using 1.2 nM HCV NS3-NS4A protease, which was obtained according to Taremi et al. (Protein Science, 1998, 7, 2143-2149). The compounds were tested at a variety of concentrations in assay buffer containing a final DMSO concentration of 5%. Reactions were allowed to proceed for 60 min at room temperature and fluorescence measurements were recorded with a Tecan Infinity Spectrofluorimeter. The IC50 values were determined from the percent inhibition versus concentration data using a sigmoidal non-linear regression analysis based on four parameters with Tecan Magellan software.
(§2) Compounds were evaluated against three mutant proteases R155Q, A156S, and D168A, as summarized in Table 8, wherein A represents a value smaller than 1, and B represents a value between 1 to 10, and C represents a value greater than 10. The fold of change in inhibitory activity was determined by measuring the ratio of the inhibitory activity of a compound against a mutant enzyme over the inhibitory activity of the same compound against non-mutant enzyme. The inhibitory activity was determined using the procedure as described in Example 31.

mutant protease R155Q = assay: Resistance profile, mutant protease R155Q; format: biochemical, HCV; settings: ratio of inhibitory activity against mutant enzyme over non-mutant enzyme
Procedure: as §1, §2

[1] = system: Huh-7 cells containing HCV Con1 subgenomic replicon (GS4.1 cells); assay: HCV Replicon Assay (NS4A ELISA); format: cell-based; settings: Hepatitis C virus, Huh-7, 72 hr, NS4A protein by ELISA
Summary of the method: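 GS4.1 cells (Huh-7 with HCV Con1 subgenomic replicon) given ten 2-fold compound dilutions (top 75 μM) or a single 15 μM dose in 0.5% DMSO for 72 h at 37 °C. NS4A measured by cell ELISA (A492); EC50 from four-parameter sigmoidal fit, single-dose results as % inhibition at 15 μM.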

[2] = Cytotoxicity (CC50) in the genotype 1b replicon assay; format: cell-based; settings: human, GS4.1 cells; genotype 1b replicon assay as described in Example 32
Procedure: (§3) For cytotoxicity evaluation, GS4.1 cells were treated with compounds as described above and cellular viability was monitored using the Cell Titer 96 AQueous One Solution Cell Proliferation Assay (Promega). CC50 values were determined from the % cytotoxicity versus concentration data with Tecan Magellan software as described above.
Compounds were tested in a genotype 1b replicon assay as described in Example 32 and the results are summarized in Table 6, wherein A represents a value smaller than 1 μM, and B represents a value between 1 μM to 10 μM, C represents a value between 10 μM to 75 μM and D represents a value greater than 75 μM.

mutant protease A156S = assay: Resistance profile, mutant protease A156S; format: biochemical, HCV; settings: ratio of inhibitory activity against mutant enzyme over non-mutant enzyme
Procedure: as §1, §2

[3] = from C=CCCCCN(C)C(=O)[C@@H]1C[C@H](Oc2cc(-c3nc(C(C)C)cs3)nc3c(Cl)c(OC)ccc23)CN1C(=O)N[C@]1(C(=O)NS(=O)(=O)C2CC2)C[C@H]1C=C; rcm bond; 14-membered ring; Zhan 1B (2%); DCE; 5.0 mM; 75.0 °C; 0.75 h
[4] = Cytotoxicity evaluation (Cell Titer 96 AQueous One Solution Cell Proliferation Assay); format: cell-based; settings: human; GS4.1 cells, cellular viability
Procedure: as §3

HCV NS3-NS4A protease = target: T1, HCV NS3-NS4A protease (Hepatitis C virus genotype 1b, UniProt P26663); assay: HCV Protease Assay (SensoLyte 620 HCV Protease Assay kit); format: biochemical; settings: 1.2 nM HCV NS3-NS4A protease, 60 min at room temperature, 5% DMSO
T1 construct: made in house
Summary of the method: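 Protease at 1.2 nM, run with the SensoLyte 620 fluorogenic kit under supplier conditions, with compounds at several concentrations in buffer with 5% final DMSO. Reactions ran 60 min at room temperature before fluorescence reading; IC50 from four-parameter sigmoidal fit of percent inhibition.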

T1 sequence (P26663 1027-1208): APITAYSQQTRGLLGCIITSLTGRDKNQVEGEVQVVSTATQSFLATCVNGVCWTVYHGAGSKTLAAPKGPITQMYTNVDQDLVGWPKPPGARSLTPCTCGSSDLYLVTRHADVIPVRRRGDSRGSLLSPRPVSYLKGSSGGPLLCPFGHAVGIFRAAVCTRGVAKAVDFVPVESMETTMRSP

With COc1ccc2c(O[C@H]3C[C@H]4C(=O)N(C)CCCC/C=C\[C@@H]5C[C@@]5(C(=O)NS(=O)(=O)C5CC5)NC(=O)N4C3)cc(-c3nc(C(C)C)cs3)nc2c1Cl [Compound 62d, (Z)-(4R,6S,15S,17S)-[17-[8-chloro-7-methoxy-2-(4-isopropylthiazol-2-yl)quinolin-4-yloxy]-13-N-methyl-2,14-dioxo-1,3,13-triazatricyclo[13.3.0.0]octadec-7-en-4-yl]carbonyl(cyclopropyl)sulfonamide] as the compound, how does the “Fold-Change D168A” value (mutant protease D168A) read?
Its value is “C (C represents a value greater than 10)”.

And the “Fold-Change R155Q” value (mutant protease R155Q)?
Its value is “A (A represents a value smaller than 1)”.

What about the EC50 [1] of the same compound?
Its EC50 is < 1000 nM.

And the CC50 [2]?
Its CC50 is 10 to 75 µM.

What about the “Fold-Change A156S” value (mutant protease A156S) of the same compound?
Its value is “A (A represents a value smaller than 1)”.

And the ring closure, isolated yield [3]?
Its ring closure, isolated yield is 63%.

What about the CC50 [4] of the same compound?
Its CC50 is > 75 µM.

What about the IC50 (HCV NS3-NS4A protease) of the same compound?
Its IC50 is < 1000 nM.
